Assay results from patent publication US20050288360A1, “Nutraceutical compositions comprising epigallocatechin gallate and raspberry ketone” (priority 2002, published 2005).
Marks after values point to notes of the source that are not given here.

Experiments:
[1] = tested on: C57BL6/J mice fed a high fat, high sucrose diet; experiment: 4-week body weight study in diet-induced obese mice; type: in vivo; details: for Body weight compared to control mice (in words): 4 week study period; for Body weight compared to control mice (in words) / Body weight, Initial / Body weight, Week 2 / Body weight, Week 4: high fat high sucrose diet; for Body weight, Initial: baseline, male C57BL6/J mice; for Body weight, Initial / Body weight, Week 2 / Body weight, Week 4: feed-ad-mix 1400 mg/kg BW/day each, group mean; for Body weight decrease, Week 2 / Body weight decrease, Week 4: decrease in comparison to control group, 1400 mg/kg BW/day each
Experimental: The efficacy of the combination of EGCG and RK as well as of both compounds alone on body weight and adiposity was tested in a 4-week study in C57BL6/J mice fed a high fat, high sucrose diet (n=8-11/group). This model of diet-induced obesity and early type 2 diabetes is widely used to determine the efficacy of anti-obesity compounds. Male C57BL6/J mice were obtained from Jackson Laboratory (Bar Harbor, Me., USA). Adult mice aged […] were used in the experiment. Mice were housed individually in plastic cages with bedding and allowed free access to a high fat, high sucrose mouse diet (Kliba # 2154, Klibamuehle, Kaiseraugst, Switzerland) and tap water. The animal rooms were controlled for temperature (24° C.), humidity (55%), and light (12-h light-dark cycle). The animals were randomized into four groups. EGCG and RK were administered as feed-ad-mix. Corn cellulose (2% of diet) served as a carrier substance for EGCG and RK as well as a placebo when used alone. Group 1 received placebo, group 2 received EGCG at a dose of 1400 mg/kg body weight (BW)/day, group 3 received RK at a dose of 1400 mg/kg BW/day, and group 4 received the combination of EGCG and RK at a doses of 1400 and 1400 mg/kg BW/day, respectively. Body weight and food intake were determined over the course of the study. All data are expressed as means for animals in each diet group. There was no difference in food intake between the groups over the study period. […] The decrease in body weight in comparison to the control group caused by each treatment was calculated (data are shown in Table 2). The expected treatment effect of the combined therapy with EGCG and RK was calculated by the sum of the effects exerted by monotherapy with EGCG or RK. The synergistic factor (SF) is defined as the quotient of the observed effect and the expected effect. If SF>1, a synergistic effect was exerted by the combined treatment.

C57BLKS/J db/db mice = experiment: 5-week body weight study in db/db mice; type: in vivo; details: for Body weight, Initial: baseline, male db/db mice, standard rodent food; for Body weight, Initial / Body weight, Week 2 / Body weight, Week 4: feed-ad-mix 1400 mg/kg BW/day each, group mean; for Body weight decrease, Week 2 / Body weight decrease, Week 4: decrease in comparison to control group, 1400 mg/kg BW/day each
Experimental: The efficacy of the combination of EGCG and RK as well as of both compounds alone on body weight and adiposity was tested in a 5-week study in C57BLKS/J db/db mice (n=8-9/group). This model of late type 2 diabetes with severe hyperglycemia and obesity is widely used to determine the efficacy of anti-diabetic and anti-obesity compounds. Male db/db mice were obtained from Jackson Laboratory (Bar Harbor, Me., USA). Adult mice aged 8 weeks were used in the experiment. Mice were housed individually in plastic cages with bedding and allowed free access to standard rodent food and tap water. The animal rooms were controlled for temperature (24° C.), humidity (55%), and light (12-h light-dark cycle). The animals were randomized into four groups. EGCG and RK were administered as feed-ad-mix. Corn cellulose (2% of diet) served as a carrier substance for EGCG and RK as well as a placebo when used alone. Group 1 received placebo, group 2 received EGCG at a dose of 1400 mg/kg BW/day, group 3 received RI<at a dose of 1400 mg/kg BW/day, and group 4 received the combination of EGCG and RK at a doses of 1400 and 1400 mg/kg BW/day, respectively. Body weight and food intake were determined over the course of the study. All data are expressed as means for animals in each diet group. There was no difference in food intake between the groups over the study period. The decrease in body weight in comparison to the control group caused by each treatment was calculated (data are shown in Table 4). The expected treatment effect of the combined therapy with EGCG and RK was calculated by the sum of the effects exerted by monotherapy with EGCG or RK. The synergistic factor (SF) is defined as the quotient of the observed effect and the expected effect. If SF>1, a synergistic effect was exerted by the combined treatment.

SMILES	Body weight compared to control mice (in words) [1]	Body weight, Initial [1] [g]	Body weight decrease, Week 2 [1] [g]	Body weight decrease, Week 4 [1] [g]	Body weight, Week 2 [1]	Body weight, Week 4 [1]	Body weight, Initial (C57BLKS/J db/db mice) [g]	Body weight compared to untreated control (in words), after four weeks of treatment (C57BLKS/J db/db mice; db/db mice)	Body weight compared to control mice (in words), week 2 (C57BLKS/J db/db mice; db/db mice, week 2)	Body weight decrease, Week 2 (C57BLKS/J db/db mice; week 2) [g]	Body weight decrease, Week 4 (C57BLKS/J db/db mice) [g]	Body weight, Week 2 (C57BLKS/J db/db mice; week 2, db/db mice)	Body weight, Week 4 (C57BLKS/J db/db mice; db/db mice) [g]	Body weight compared to control (in words), during the study period (C57BLKS/J db/db mice; db/db mice, whole study period)
O=C(O[C@@H]1Cc2c(O)cc(O)cc2O[C@@H]1c1cc(O)c(O)c(O)c1)c1cc(O)c(O)c(O)c1 [EGCG, epigallocatechin gallate]	significant decrease in body weight	11.4	2.7	2.2	17.7* g	21.4* g	32.2	neither EGCG nor RK caused a significant decrease in body weight	significant decrease in body weight	3.0	0.8	35.7* g	37.7	–
CC(=O)CCc1ccc(O)cc1 [RK, 4-(4-hydroxyphenyl)-2-butanone]	significant decrease in body weight	11.5	1.6	1.5	19.0* g	22.1* g	32.5	neither EGCG nor RK caused a significant decrease in body weight	–	0.3	0.4	38.4 g	38.0	did not significantly decrease body weight
